Assay results: ChEMBL document CHEMBL5352461, “Discovery of the novel Benzo[b]thiophene 1,1-dioxide derivatives as a potent STAT3 inhibitor against idiopathic pulmonary fibrosis” (Eur J Med Chem, 2023)
Calls of active or inactive are those of the source.

Assays:
Mus musculus [1] = assay: Antifibrotic activity against bleomycin-induced C57BL/6 mouse lung fibrosis model assessed as inhibition of hydroxyproline content in lung at 60 mg/kg, ip administered for 7 to 14 days; type: functional, organism-based; conditions: time 7-14 day
Mus musculus [2] = species on record: Mus musculus; assay: Antifibrotic activity against bleomycin-induced C57BL/6 mouse lung fibrosis model assessed as reduction in F4/80+CD11b+ macrophage incubated for 30 mins by flow cytometry analysis; type: functional, organism-based
A549 [3] = assay: Antiproliferative activity against TGFbeta-induced human A549 cells assessed as reduction in cell viability at 200 nM incubated for 72 hrs by CCK-8 assay; type: functional
A549 [4] = assay: Inhibition of epithelial-mesenchymal transition in human A549 cells assessed as effect on alpha-SMA by measuring fluorescence intensity measured for 24 hrs by immunofluorescence assays; type: functional, cell-based
Mus musculus [5] = species on record: Mus musculus; assay: Antifibrotic activity against bleomycin-induced C57BL/6 mouse lung fibrosis model assessed as reduction in CD4-CD69+ T cell in lung at high dose incubated for 30 mins by flow cytometry analysis ( Rvb = 6.54%); type: functional; set-up: scale not given: the % may be the effect or the level left; conditions: 0.5 h
Mus musculus [6] = species on record: Mus musculus; assay: Antifibrotic activity against bleomycin-induced C57BL/6 mouse lung fibrosis model assessed as reduction in CD11c+MHC II+ in dendritic cells incubated for 30 mins by flow cytometry analysis; type: functional, organism-based
Mus musculus [7] = assay: Antifibrotic activity against bleomycin-induced C57BL/6 mouse lung fibrosis model assessed as inhibition of hydroxyproline content in lung at 60 mg/kg, ip; type: functional, organism-based
Mus musculus [8] = species on record: Mus musculus; assay: Antifibrotic activity against bleomycin-induced C57BL/6 mouse lung fibrosis model assessed as reduction in CD4-CD69+ T cell in lung at low dose incubated for 30 mins by flow cytometry analysis ( Rvb = 6.54%); type: functional; set-up: scale not given: the % may be the effect or the level left; conditions: 0.5 h
[9] = molecular target: Signal transducer and activator of transcription 3 (Homo sapiens) (UniProt P40763); assay: Binding affinity to STAT3 in human A549 cells assessed as reduction in protein degradation; type: cell-based
[10] = Toxicity in C57BL/6 mouse assessed as heart lesion at 60 mg/kg, ip by H and E staining based analysis; type: organism-based; conditions: in vivo
NIH3T3 [11] = assay: Antiproliferative activity against mouse NIH3T3 cells assessed as cell growth inhibition incubated for 72 hrs by CCK-8 assay; type: functional, cell-based; conditions: dose 6.25-100 nM
Mus musculus [12] = species on record: Mus musculus; assay: Antifibrotic activity against bleomycin-induced C57BL/6 mouse lung fibrosis model assessed as reduction in CD4-CD69+ T cell incubated for 30 mins by flow cytometry analysis; type: functional, organism-based
A549 [13] = assay: Inhibition of epithelial-mesenchymal transition in human A549 cells assessed as effect on E-cadherin by measuring fluorescence intensity measured for 24 hrs by immunofluorescence assays; type: functional, cell-based
Mus musculus [14] = species on record: Mus musculus; assay: Antifibrotic activity against bleomycin-induced C57BL/6 mouse lung fibrosis model assessed as reduction in CD11c+MHC II+ in dendritic cells in lung at high dose incubated for 30 mins by flow cytometry analysis ( Rvb = 23.67 %); type: functional; set-up: scale not given: the % may be the effect or the level left; conditions: 0.5 h
Mus musculus [15] = assay: Antifibrotic activity against bleomycin-induced C57BL/6 mouse lung fibrosis model assessed as prevention of belomycin-induced alpha-SMA expression in lung at 60 mg/kg, ip by immunohistochemical staining based analysis; type: functional, organism-based
NIH3T3 [16] = assay: Antiproliferative activity against TGFbeta-induced mouse NIH3T3 cells assessed as cell viability at 6.25 to 100 nM incubated for 24 to 72 hrs by CCK-8 assay; type: functional, cell-based; conditions: dose 6.25-100 nM, time 24-72 hrs
NIH3T3 [17] = assay: Antiproliferative activity against mouse NIH3T3 cells assessed as cell growth inhibition incubated for 24 to 72 hrs by CCK-8 assay; type: functional, cell-based
[18] = Toxicity in C57BL/6 mouse assessed as liver lesion at 60 mg/kg, ip by H and E staining based analysis; type: organism-based; conditions: in vivo
A549 [19] = assay: Antiproliferative activity against TGFbeta-induced human A549 cells assessed as reduction in cell viability incubated for 72 hrs by CCK-8 assay; type: functional, cell-based; conditions: dose 25-400 nM
Mus musculus [20] = species on record: Mus musculus; assay: Antifibrotic activity against bleomycin-induced C57BL/6 mouse lung fibrosis model assessed as reduction in F4/80+CD11b+ macrophage in lung at high dose incubated for 30 mins by flow cytometry analysis ( Rvb = 17.96%); type: functional; set-up: scale not given: the % may be the effect or the level left; conditions: 0.5 h
A549 [21] = assay: Inhibition of epithelial-mesenchymal transition in TGF-beta1-induced human A549 cells assessed as effect on alpha-SMA by measuring fluorescence intensity at 200 nM incubated for 24 hrs by immunofluorescence assays; type: functional, cell-based
Mus musculus [22] = assay: Antifibrotic activity against bleomycin-induced pulmonary fibrosis C57BL/6 mouse model assessed as increase in inter-alveolar space at 60 mg/kg, ip administered for 20 days and measured on 21 day; type: functional, organism-based
NIH3T3 [23] = assay: Antifibrotic activity in TGF-beta1-induced mouse NIH3T3 cells assessed as inhibition of STAT3 phosphorylation at 50 nM incubated for 24 hrs by Western blot analysis; type: functional, cell-based
[24] = Toxicity in C57BL/6 mouse assessed as spleen lesion at 60 mg/kg, ip by H and E staining based analysis; type: organism-based; conditions: in vivo
Mus musculus [25] = species on record: Mus musculus; assay: Antifibrotic activity against bleomycin-induced C57BL/6 mouse lung fibrosis model assessed as reduction in F4/80+CD11b+ macrophage in lung at low dose incubated for 30 mins by flow cytometry analysis ( Rvb = 17.96%); type: functional; set-up: scale not given: the % may be the effect or the level left; conditions: 0.5 h
A549 [26] = assay: Inhibition of cell migration in TGF-beta1 induced human A549 cells measured for 24 hrs by contrast-phase microscopic analysis; type: functional, cell-based
[27] = Toxicity in C57BL/6 mouse assessed as kidney lesion at 60 mg/kg, ip by H and E staining based analysis; type: organism-based; conditions: in vivo
NIH3T3 [28] = assay: Antifibrotic activity in TGF-beta1-induced mouse NIH3T3 cells assessed as inhibition of alpha-SMA expression at 50 nM incubated for 24 hrs by Western blot analysis; type: functional, cell-based
NIH3T3 [29] = assay: Inhibition of colony formation in mouse NIH3T3 cells assessed as inhibition of cell proliferation incubated for 2 weeks by crystal violet staining based microscopic analysis; type: functional; conditions: dose <= 100.0 nM
Mus musculus [30] = assay: Antifibrotic activity against bleomycin-induced C57BL/6 mouse lung fibrosis model assessed as prevention of belomycin-induced collagen-1 expression in lung at 60 mg/kg, ip by immunohistochemical staining based analysis; type: functional, organism-based
A549 [31] = assay: Induction of morphological changes in TGF-beta1 induced human A549 cells assessed as appearance of spindle shape cells at 200 nM measured for 24 hrs by phase contrast microscopy analysis; type: functional, cell-based
Mus musculus [32] = assay: Antifibrotic activity against bleomycin-induced pulmonary fibrosis C57BL/6 mouse model assessed as reduction in alveolar septa thickness at 60 mg/kg, ip administered for 20 days and measured on 21 day; type: functional, organism-based
NIH3T3 [33] = assay: Antifibrotic activity in TGF-beta1-induced mouse NIH3T3 cells assessed as inhibition of collagen-1 expression at 50 nM incubated for 24 hrs by Western blot analysis; type: functional, cell-based
Mus musculus [34] = assay: Antifibrotic activity against bleomycin-induced C57BL/6 mouse lung fibrosis model assessed as reduction in STAT3 phosphorylation at Ty705 residue in lung at 60 mg/kg, ip by immunohistochemical staining based analysis; type: functional, organism-based
A549 [35] = assay: Inhibition of epithelial-mesenchymal transition in TGF-beta1-induced human A549 cells assessed as effect on E-cadherin by measuring fluorescence intensity at 200 nM incubated for 24 hrs by immunofluorescence assays; type: functional, cell-based
[36] = molecular target: Signal transducer and activator of transcription 3 (Mus musculus) (UniProt P42227); assay: Binding affinity to STAT3 in mouse NIH3T3 cells assessed as reduction in protein degradation; type: cell-based
Mus musculus [37] = species on record: Mus musculus; assay: Antifibrotic activity against bleomycin-induced C57BL/6 mouse lung fibrosis model assessed as reduction in CD11c+MHC II+ in dendritic cells in lung at low dose incubated for 30 mins by flow cytometry analysis ( Rvb = 23.67 %); type: functional; set-up: scale not given: the % may be the effect or the level left; conditions: 0.5 h

Signal transducer and activator of transcription 3 (Mus musculus), sequence (P42227 whole entry): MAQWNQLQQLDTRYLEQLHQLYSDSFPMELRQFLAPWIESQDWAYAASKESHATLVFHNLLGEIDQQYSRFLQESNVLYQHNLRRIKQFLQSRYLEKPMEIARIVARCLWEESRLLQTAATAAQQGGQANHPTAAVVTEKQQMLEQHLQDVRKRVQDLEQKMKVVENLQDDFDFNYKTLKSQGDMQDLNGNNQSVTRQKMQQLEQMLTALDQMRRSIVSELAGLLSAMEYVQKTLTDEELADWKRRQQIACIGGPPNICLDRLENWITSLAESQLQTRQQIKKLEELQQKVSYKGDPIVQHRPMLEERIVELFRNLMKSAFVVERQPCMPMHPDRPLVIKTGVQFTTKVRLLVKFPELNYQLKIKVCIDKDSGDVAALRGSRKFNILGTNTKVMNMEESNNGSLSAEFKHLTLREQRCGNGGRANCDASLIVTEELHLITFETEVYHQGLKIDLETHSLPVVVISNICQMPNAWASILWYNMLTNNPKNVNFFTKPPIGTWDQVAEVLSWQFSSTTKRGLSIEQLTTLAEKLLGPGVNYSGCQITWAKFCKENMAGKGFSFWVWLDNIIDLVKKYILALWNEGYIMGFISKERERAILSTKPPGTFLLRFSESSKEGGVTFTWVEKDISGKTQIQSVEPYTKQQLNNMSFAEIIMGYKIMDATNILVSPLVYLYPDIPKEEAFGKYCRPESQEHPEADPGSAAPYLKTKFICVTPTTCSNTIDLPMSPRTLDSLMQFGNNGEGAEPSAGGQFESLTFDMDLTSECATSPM
Signal transducer and activator of transcription 3 (Homo sapiens), sequence (P40763 whole entry): as the sequence (P42227 whole entry) above, with D760E counted along it

O=C(C1=Cc2ccccc2S1(=O)=O)N1CCN(Cc2cc(F)c(F)cc2F)CC1
0.65%: Activity (Mus musculus [8])
6.93%: Activity (Mus musculus [25])
10.45%: Activity (Mus musculus [20])
active: Activity (Mus musculus [1]) | Activity (Mus musculus [2]) | inhibition (A549 [4]) | Activity (Mus musculus [6]) | Activity (Mus musculus [7]) | Activity [9] | Activity (NIH3T3 [11]) Dose-Dependent Effect | Activity (Mus musculus [12]) | inhibition (A549 [13]) | Activity (Mus musculus [15]) | Activity (NIH3T3 [16]) | Activity (A549 [19]) Dose-Dependent Effect | inhibition (A549 [21]) | Activity (Mus musculus [22]) | Activity (NIH3T3 [23]) | inhibition (A549 [26]) | Activity (NIH3T3 [28]) | inhibition (NIH3T3 [29]) Dose-Dependent Effect | Activity (Mus musculus [30]) | Activity (A549 [31]) | Activity (Mus musculus [32]) | Activity (NIH3T3 [33]) | Activity (Mus musculus [34]) | inhibition (A549 [35]) | Activity [36]
50%: Activity (A549 [3])
Non-Toxic: Activity [10] | Activity [18] | Activity [24] | Activity [27]
0.47 µM: IC50 (NIH3T3 [17])
12.37%: Activity (Mus musculus [37])
2.84%: Activity (Mus musculus [5])
9.28%: Activity (Mus musculus [14])
